The values that follow come from PubChem BioAssay (NCI).

Test systems include UACC-257 melanoma; HCT-15 colon; U251 CNS; COLO 205 colon; MCF7 breast; RPMI-8226 leukemia; SNB-75 CNS; SK-OV-3 ovarian; TK-10 renal; HCC-2998 colon; M14 melanoma; ACHN renal; T-47D breast; OVCAR-8 ovarian; K-562 leukemia; UO-31 renal; SW-620 colon; NCI-H460 lung.
What all share (assay): NCI anticancer screen, dose series, 48 h

The structures appear in SMILES notation.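 Cultured in 96-well plates, cells were exposed to test compound for 48 hours across five concentrations. TGI marks complete inhibition of growth.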

Take `[O-][n+]1nc(N2CCOCC2)nc2ccccc21`: the TGI in the test on UACC-257 melanoma, in the test with HCT-15 colon, with U251 CNS, in the test with COLO 205 colon, in the test on MCF7 breast and with RPMI-8226 leukemia was above 100 µM each time. Further, the TGI in the test with SNB-75 CNS, with SK-OV-3 ovarian, with TK-10 renal, in the test with HCC-2998 colon, with M14 melanoma and with ACHN renal was above 100 µM throughout. Further, the TGI in the test with T-47D breast, in the test with OVCAR-8 ovarian, with K-562 leukemia, in the test with UO-31 renal and in the test on SW-620 colon was above 100 µM in each case.

Regarding `NCc1ccc(-c2ccc(CN)s2)s1`, the TGI with UACC-257 melanoma, in the test on HCT-15 colon, in the test with U251 CNS, in the test on COLO 205 colon, with MCF7 breast and in the test on RPMI-8226 leukemia was above 100 µM in each case. Further, the TGI in the test on SNB-75 CNS was above 100 µM; with SK-OV-3 ovarian, above 100 µM; in the test on TK-10 renal, 68.7 µM; in the test on HCC-2998 colon, above 100 µM; with M14 melanoma it was above 100 µM; with ACHN renal it was above 100 µM. The TGI in the test with T-47D breast, in the test on OVCAR-8 ovarian, in the test on K-562 leukemia, with UO-31 renal and with SW-620 colon was above 100 µM in each case.

For `COC(=O)c1ccccc1/C=C1\Cc2c(C)c3c(c(C)c2C1=O)CCC3`, the TGI with UACC-257 melanoma, with HCT-15 colon, in the test on U251 CNS, in the test on COLO 205 colon, with MCF7 breast and in the test on RPMI-8226 leukemia was above 100 µM each time. Moreover, the TGI in the test on SNB-75 CNS, in the test on NCI-H460 lung, in the test on TK-10 renal, with HCC-2998 colon, in the test with M14 melanoma and in the test with ACHN renal was above 100 µM in each case. The TGI in the test on T-47D breast, in the test with OVCAR-8 ovarian, in the test with K-562 leukemia, in the test on UO-31 renal and in the test on SW-620 colon was above 100 µM throughout.

With `COc1ccc(NC(=S)Nc2cc(C)ccn2)cc1`, the TGI in the test with UACC-257 melanoma, with HCT-15 colon, in the test on U251 CNS, in the test with COLO 205 colon, in the test on MCF7 breast and in the test on RPMI-8226 leukemia was above 100 µM throughout. The TGI in the test on SNB-75 CNS, in the test on NCI-H460 lung, in the test on TK-10 renal, in the test with HCC-2998 colon, in the test with ACHN renal and in the test on T-47D breast was above 100 µM each time. In addition, the TGI in the test with OVCAR-8 ovarian, in the test on K-562 leukemia, in the test with UO-31 renal and with SW-620 colon was above 100 µM throughout.

Regarding `Cc1nc(N)c(N2CCN(S(N)(=O)=O)CC2)c(=O)[nH]1`, the TGI in the test with UACC-257 melanoma, in the test with HCT-15 colon, with U251 CNS, in the test on COLO 205 colon, in the test with MCF7 breast and with RPMI-8226 leukemia was above 100 µM throughout. In addition, the TGI in the test on SNB-75 CNS, in the test on NCI-H460 lung, with TK-10 renal, in the test on HCC-2998 colon, in the test on M14 melanoma and in the test on ACHN renal was above 100 µM in each case. Moreover, the TGI with T-47D breast, in the test on OVCAR-8 ovarian, in the test with K-562 leukemia, in the test on UO-31 renal and in the test on SW-620 colon was above 100 µM each time.

As to `CN1CCC23c4c5ccc(Oc6nnnn6-c6ccccc6)c4OC2c2[nH]c4ccccc4c2CC3(O)C1C5` (stereo not given), the TGI in the test with UACC-257 melanoma amounted to 3.32 µM; with HCT-15 colon, 6.36 µM; with U251 CNS, 3.65 µM; in the test on MCF7 breast, 5.12 µM; with RPMI-8226 leukemia it was 6.06 µM; with SNB-75 CNS, 7.66 µM. For the same compound, the TGI in the test on SK-OV-3 ovarian came to 25.4 µM; in the test on NCI-H460 lung, 3.66 µM; with TK-10 renal, 3.35 µM; with HCC-2998 colon, 3.3 µM; in the test on M14 melanoma, 3.38 µM; in the test on ACHN renal it was 3.52 µM. The TGI in the test on T-47D breast is 23.1 µM; in the test on OVCAR-8 ovarian it was 9.6 µM; with K-562 leukemia, 3.86 µM; with UO-31 renal, 3.18 µM; in the test with SW-620 colon, 6.14 µM.

As to `CC(=O)NC1C(OCc2ccccc2)OC(CO)C(O)C1OC(C)C(=O)NC(C(=O)NC(CCC(=O)NCCCC(=O)Nc1ccc2c(c1)CN1C(=O)c3ccccc3C1=N2)C(N)=O)C(C)C` (stereo not given), the TGI in the test on UACC-257 melanoma, with HCT-15 colon, in the test on U251 CNS, with COLO 205 colon, in the test with MCF7 breast and in the test with RPMI-8226 leukemia was above 100 µM in each case. The TGI with SNB-75 CNS, in the test on SK-OV-3 ovarian, in the test on NCI-H460 lung, in the test on TK-10 renal, with HCC-2998 colon and in the test on M14 melanoma was above 100 µM throughout. Moreover, the TGI in the test on ACHN renal, in the test with T-47D breast, in the test on K-562 leukemia, in the test with UO-31 renal and with SW-620 colon was above 100 µM throughout.

As for `CC(C)CCCC(C)[C@H]1CC[C@H]2n3c(nnc3-c3ccccc3)CCC[C@]12C` (stereo not given in full), the TGI in the test on UACC-257 melanoma stood at 26.9 µM; with HCT-15 colon, 68.9 µM; in the test with U251 CNS, 23.5 µM; in the test on COLO 205 colon, 14.8 µM; in the test on MCF7 breast it was 20.7 µM; with RPMI-8226 leukemia it was 21.1 µM. Moreover, the TGI in the test on SNB-75 CNS was 35.3 µM; in the test with SK-OV-3 ovarian it was 26.9 µM; in the test with NCI-H460 lung, 24.1 µM; with TK-10 renal, 57.2 µM; in the test with HCC-2998 colon, 0.0669 µM; in the test on M14 melanoma, 30.1 µM. Also, the TGI in the test on T-47D breast stood at 37.4 µM; with OVCAR-8 ovarian, 67.2 µM; in the test on K-562 leukemia, 13.6 µM; in the test on UO-31 renal, 23.2 µM; in the test on SW-620 colon, 47.5 µM.
